Assay results taken from the Kinase Knowledgebase extract (Sharma et al. 2016).
≈ marks a conversion by molar mass, not a printed value.

Columns and labels:
PIK3CA (human) [1] = biological target: PIK3CA (human) (UniProt P42336); assay: Assessment of PI3K Dependent Phosphorylation of p-AKT(T308) in PC3 Cells; conditions: pc-3
MAPK14 [2] = biological target: MAPK14 (UniProt Q16539); assay: Assessment of MAPK14 Kinase Activity
EGFR (human) [3] = biological target: EGFR (human) (UniProt P00533)
MAPK14 [4] = biological target: MAPK14 (UniProt Q16539); assay: MAPK14 Kinase Inhibition
MAPK14 [5] = biological target: MAPK14 (UniProt Q16539); assay: Inhibition of p38 Kinase Activity
CDK2 (human) [6] = biological target: CDK2 (human) (UniProt P24941); assay: Enzyme Assay
CDK2 (human) [7] = biological target: CDK2 (human) (UniProt P24941); assay: Enzyme Assay; remark: listed apart in the source
EGFR (human) [8] = biological target: EGFR (human) (UniProt P00533); conditions: kb
MAPK14 [9] = biological target: MAPK14 (UniProt Q16539); assay: p38 Inhibition Assay (in Vitro)
ROCK2 = ROCK2 (UniProt O75116); assay: Inhibition of ROCK2 Kinase Activity
EGFR [10] = biological target: EGFR (UniProt P00533); conditions: concentration not given here
EGFR, sequence (P00533 whole entry, looked up): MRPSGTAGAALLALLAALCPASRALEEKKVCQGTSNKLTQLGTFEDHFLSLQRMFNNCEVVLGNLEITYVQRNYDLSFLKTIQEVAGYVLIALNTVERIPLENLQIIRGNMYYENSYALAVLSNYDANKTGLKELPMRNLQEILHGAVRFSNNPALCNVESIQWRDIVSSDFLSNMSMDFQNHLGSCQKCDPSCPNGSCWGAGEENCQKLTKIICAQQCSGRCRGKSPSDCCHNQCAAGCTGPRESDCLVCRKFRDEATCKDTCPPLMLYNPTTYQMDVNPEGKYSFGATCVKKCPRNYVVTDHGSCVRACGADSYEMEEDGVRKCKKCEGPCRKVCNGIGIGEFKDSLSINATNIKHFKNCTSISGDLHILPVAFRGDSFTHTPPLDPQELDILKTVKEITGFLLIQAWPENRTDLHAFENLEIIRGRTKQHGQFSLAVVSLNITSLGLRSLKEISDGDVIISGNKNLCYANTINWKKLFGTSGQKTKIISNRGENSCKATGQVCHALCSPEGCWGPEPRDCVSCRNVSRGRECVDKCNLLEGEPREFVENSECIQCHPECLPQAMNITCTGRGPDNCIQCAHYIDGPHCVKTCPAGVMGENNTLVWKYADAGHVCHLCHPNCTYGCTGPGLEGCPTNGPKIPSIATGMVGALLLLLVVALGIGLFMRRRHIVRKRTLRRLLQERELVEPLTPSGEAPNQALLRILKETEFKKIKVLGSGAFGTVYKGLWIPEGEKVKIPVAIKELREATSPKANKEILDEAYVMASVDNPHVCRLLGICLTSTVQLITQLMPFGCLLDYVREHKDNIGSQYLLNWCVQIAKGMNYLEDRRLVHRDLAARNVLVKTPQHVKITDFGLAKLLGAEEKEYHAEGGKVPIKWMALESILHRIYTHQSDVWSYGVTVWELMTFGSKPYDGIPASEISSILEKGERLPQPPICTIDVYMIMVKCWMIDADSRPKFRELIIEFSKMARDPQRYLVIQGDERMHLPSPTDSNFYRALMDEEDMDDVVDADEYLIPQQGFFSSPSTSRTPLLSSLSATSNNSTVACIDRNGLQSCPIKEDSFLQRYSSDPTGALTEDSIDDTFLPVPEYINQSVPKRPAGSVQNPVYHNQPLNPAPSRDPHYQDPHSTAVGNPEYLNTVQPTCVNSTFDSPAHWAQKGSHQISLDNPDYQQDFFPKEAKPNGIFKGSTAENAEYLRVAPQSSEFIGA

EGFR [11] = biological target: EGFR (UniProt P00533)
EGFR (human) [12] = biological target: EGFR (human) (UniProt P00533); conditions: hn5
EGFR (human) [13] = biological target: EGFR (human) (UniProt P00533); conditions: a431
MAPK14 [14] = biological target: MAPK14 (UniProt Q16539); assay: p38 Inhibition
PIK3CG (murine) = assay: Inhibition of C5a-Mediated AKT Phosphorylation in Raw 264.7 Macrophages
MAPK14 (human) = MAPK14 (human) (UniProt Q16539); assay: p38-alpha Kinase Inhibition; conditions: COS-1
MAPK14 (human), sequence (Q16539 whole entry, looked up): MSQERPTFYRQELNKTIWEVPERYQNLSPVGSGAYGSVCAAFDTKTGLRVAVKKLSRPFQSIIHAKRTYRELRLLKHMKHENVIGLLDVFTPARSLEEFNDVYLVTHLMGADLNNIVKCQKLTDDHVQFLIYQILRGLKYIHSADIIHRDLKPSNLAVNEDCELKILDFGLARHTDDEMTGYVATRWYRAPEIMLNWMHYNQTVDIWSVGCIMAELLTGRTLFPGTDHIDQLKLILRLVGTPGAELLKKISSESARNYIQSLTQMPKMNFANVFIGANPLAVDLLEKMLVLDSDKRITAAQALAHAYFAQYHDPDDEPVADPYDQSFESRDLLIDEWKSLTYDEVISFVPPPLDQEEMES

EGFR [15] = biological target: EGFR (UniProt P00533); remark: listed apart in the source
EGFR (murine) [16] = biological target: EGFR (murine) (UniProt P00533); conditions: nih 3t3
EGFR (murine), sequence (P00533 whole entry, looked up): as the sequence (P00533 whole entry, looked up) above

EGFR (human) [17] = biological target: EGFR (human) (UniProt P00533); remark: listed apart in the source
EGFR (murine) [18] = biological target: EGFR (murine) (UniProt P00533); conditions: f/l herc cells
PIK3CA (human) [19] = biological target: PIK3CA (human) (UniProt P42336); assay: Antiproliferation of NZOV9 Cell Line Using Thymidine Depletion Assay
ROCK2 (human) = ROCK2 (human) (UniProt O75116); assay: Inhibition of ROCK2 Kinase Activity; conditions: concentration not given here

MAPK14, sequence (Q16539 whole entry, looked up): as the sequence (Q16539 whole entry, looked up) above
EGFR (human), sequence (P00533 whole entry, looked up): as the sequence (P00533 whole entry, looked up) above
PIK3CA (human), sequence (P42336 whole entry, looked up): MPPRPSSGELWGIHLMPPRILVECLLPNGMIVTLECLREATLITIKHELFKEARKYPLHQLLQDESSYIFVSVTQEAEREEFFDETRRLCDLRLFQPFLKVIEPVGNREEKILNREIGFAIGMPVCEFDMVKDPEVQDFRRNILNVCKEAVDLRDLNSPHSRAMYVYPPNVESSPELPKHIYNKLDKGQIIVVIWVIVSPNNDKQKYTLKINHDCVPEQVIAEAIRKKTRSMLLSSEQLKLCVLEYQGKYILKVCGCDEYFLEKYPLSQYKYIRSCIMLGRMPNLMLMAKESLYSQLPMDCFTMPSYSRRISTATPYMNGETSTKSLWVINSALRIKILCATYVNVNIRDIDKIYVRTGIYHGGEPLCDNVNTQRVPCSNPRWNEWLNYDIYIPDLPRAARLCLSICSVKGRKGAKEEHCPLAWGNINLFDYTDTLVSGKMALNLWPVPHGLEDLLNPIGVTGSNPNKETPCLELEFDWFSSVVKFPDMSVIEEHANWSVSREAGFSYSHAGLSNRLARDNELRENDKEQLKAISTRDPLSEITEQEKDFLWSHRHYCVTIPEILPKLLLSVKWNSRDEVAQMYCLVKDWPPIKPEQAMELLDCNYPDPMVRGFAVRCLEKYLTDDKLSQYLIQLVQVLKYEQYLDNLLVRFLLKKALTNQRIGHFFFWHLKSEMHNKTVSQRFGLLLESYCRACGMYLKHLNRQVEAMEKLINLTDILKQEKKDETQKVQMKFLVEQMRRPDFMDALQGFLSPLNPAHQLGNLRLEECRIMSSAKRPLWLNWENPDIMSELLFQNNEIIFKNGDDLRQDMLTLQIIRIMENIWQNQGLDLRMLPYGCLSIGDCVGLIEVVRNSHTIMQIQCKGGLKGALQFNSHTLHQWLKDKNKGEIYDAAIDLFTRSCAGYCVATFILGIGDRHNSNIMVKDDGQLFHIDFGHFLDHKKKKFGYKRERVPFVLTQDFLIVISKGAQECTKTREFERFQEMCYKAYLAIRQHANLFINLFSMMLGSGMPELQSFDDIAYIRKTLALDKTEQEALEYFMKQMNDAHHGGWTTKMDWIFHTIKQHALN

## CSc1cnc(-c2ccc(NC(=O)Nc3ccc(N4CCOCC4=O)cc3)cc2)nc1N1CCOCC1
PIK3CA (human) [1]
  IC50: 141 nM

## CC(C)Nc1ncc2cc(-c3ccccc3Cl)c3nccn3c2n1
MAPK14 [2]
  IC50: 1.4 nM

## O=C(/C=C/N1CC2CC1CO2)Nc1cc2c(Nc3ccc(F)c(Cl)c3)ncnc2cc1O[C@H]1CCOC1 (stereo partly specified)
EGFR (human) [3]
  IC50: 0.5 nM

## Cc1ccccc1Nc1nccc(-c2cccnc2-c2ccc(F)cc2)n1
MAPK14 [4]
  IC50: < 50000 nM

## O=C(CCCNc1ncc(C(F)(F)F)cc1Cl)NNS(=O)(=O)c1ccc(CNC(=O)c2ccccc2O)s1
MAPK14 [5]
  IC50: > 30000 nM

## CC[C@@H](CO)Nc1cc(NCc2ccccc2)c2ncn(C(C)C)c2n1
CDK2 (human) [6]
  IC50: 420 nM
CDK2 (human) [7]
  IC50: 310 nM

## COC(=O)N1CCC(Oc2cc3c(Nc4cccc(Cl)c4F)ncnc3cc2OC)CC1
EGFR (human) [8]
  IC50: 35 nM

## O=C(NCc1ccc(S(=O)(=O)N2CCN(c3ncccn3)CC2)s1)c1ccc(Cl)cc1
MAPK14 [9]
  IC50: > 30000 nM

## COc1cc2ncnc(Nc3ccc(F)c(Cl)c3F)c2cc1OC1CCN(C(=O)OCCN2CCCC2)CC1
EGFR (human) [8]
  IC50: 15 nM

## CC[C@H](CO)Nc1cc(NCc2ccc(-c3ccccn3)cc2)c2ncn(C(C)C)c2n1
CDK2 (human) [6]
  IC50: 360 nM
CDK2 (human) [7]
  IC50: 250 nM

## NC(=O)c1c(NC(=O)Nc2ccccc2)sc2cc(O)ccc12
ROCK2; concentration not given here
  inhibition: > 50%
EGFR [10]
  inhibition: > 50%

## CN(C)CCCC(=O)N1CCOc2cc3ncc(C#N)c(Nc4ccc(F)c(Cl)c4)c3cc21
EGFR [11]
  IC50: 200 nM

## CS(=O)(=O)NCCNCc1ccc(-c2cc3c(Nc4ccc(OCc5ccccc5)cc4)ncnc3cn2)o1
EGFR (human) [12]
  IC50: 720 nM

## O=C(NCc1ccc(S(=O)(=O)N2CCN(C(=O)N3C=Cc4oncc4C3)CC2)s1)c1ccc(Cl)cc1
MAPK14 [9]
  IC50: > 30000 nM

## CN(CC(N)=O)Cc1ccc(-c2cc3c(Nc4ccc(OCc5ccccc5)cc4)ncnc3cn2)o1
EGFR (human) [12]
  IC50: 350 nM

## CCOc1cnc(-c2ccc(NC(=O)Nc3ccc(NS(C)(=O)=O)cc3)cc2)nc1N1CCOCC1
PIK3CA (human) [1]
  IC50: < 10 nM

## O=C(C=C1CCNC1)Nc1ccc2ncnc(Nc3cccc(Br)c3)c2c1
EGFR (human) [13]
  EC50: 13000 nM

## O=C(CCCNc1ncc(C(F)(F)F)cc1Cl)NNS(=O)(=O)c1ccc(CNC(=O)c2ccc(Cl)cc2)cc1
MAPK14 [14]
  IC50: > 30000 nM
MAPK14 [5]
  IC50: > 30000 nM

## N=C1NC(=O)/C(=C/c2ccc3nccnc3c2)S1
PIK3CG (murine)
  inhibition: 100%

## O=C1NC(=O)/C(=C/c2ccc3c(c2)OCO3)S1
PIK3CG (murine)
  inhibition: 100%

## Cc1ccccc1Cc1ccc(Nc2ccc(F)cc2C)cc1Cl
MAPK14 (human)
  IC50: > 100000 nM

## O=C(NCc1ccc(S(=O)(=O)N2CCC(Nc3cccc(S(=O)(=O)C(F)(F)F)c3)CC2)s1)c1ccc(Cl)cc1
MAPK14 [9]
  IC50: > 30000 nM

## NS(=O)(=O)c1ccc(Nc2nc(OCC3CCCCC3)c3nc[nH]c3n2)cc1
ROCK2
  IC50: 600 nM

## CN(C(=O)NCCCl)c1ccc2ncnc(Nc3cccc(Br)c3)c2c1
EGFR [15]
  IC50: 156 nM

## O=C(/C=C/CN1CC2CC1CO2)Nc1cc2c(Nc3ccc(F)c(Cl)c3)ncnc2cc1OCC1CC1 (stereo unspecified)
EGFR (human) [3]
  IC50: 1.5 nM

## CCOC(=O)Nc1nc2ccc(Oc3ccccc3)nc2[nH]1
EGFR (murine) [16]
  IC50: > 100000 nM

## OCCNCC1COc2cc3ncnc(Nc4cccc(Br)c4)c3cc2O1 (stereo unspecified)
EGFR (human) [17]
  IC50: 0.022 µg/mL (≈ 0.051 µM)

## CCOC(=O)CN1CCC[C@H]1COc1cc2c(Nc3cccc(Br)c3)ncnc2cc1OC
EGFR (murine) [18]
  IC50: 20 nM

## CC[C@H](CO)Nc1cc(NCc2ccccc2)c2ncn(C(C)C)c2n1
CDK2 (human) [6]
  IC50: 300 nM
CDK2 (human) [7]
  IC50: 180 nM

## Cc1ccc([N+](=O)[O-])cc1S(=O)(=O)N(C)N=Cc1cn(C)c2ccccc12
PIK3CA (human) [19]
  IC50: > 20000 nM

## O=C1NC(=O)/C(=C/c2ccc3nsnc3c2)S1
PIK3CG (murine)
  inhibition: 100%

## O=C1NC(=O)/C(=C/c2ccc3ncnc(N4CCCCC4)c3c2)S1
PIK3CG (murine)
  inhibition: 100%

## CN(C)C(=O)[C@@H]1CCCN1Cc1ccc(-c2cc3c(Nc4ccc(OCc5ccccc5)cc4)ncnc3cn2)o1
EGFR (human) [12]
  IC50: 3300 nM

## Cc1cccc(Nc2ncnc3ccc(N)cc23)c1
EGFR [15]
  IC50: 1000 nM

## O=C(NCc1ccc(S(=O)(=O)N2CCC(n3nnc4ccccc43)CC2)s1)c1ccc(Cl)cc1
MAPK14 [9]
  IC50: > 30000 nM
CDK2 (human) [6]; concentration not given here
  inhibition: 1%
ROCK2 (human)
  inhibition: -1%

## COc1cc2ncnc(Nc3cccc(Cl)c3F)c2cc1OC1CCN(C(=O)OCCN2CCCC2)CC1
EGFR (human) [8]
  IC50: 9 nM

## O=c1[nH]c2ccc(Oc3ccccc3)nc2[nH]1
EGFR (murine) [16]
  IC50: > 100000 nM

## COC(=O)Nc1nc2ccc(Oc3ccccc3)nc2[nH]1
EGFR (murine) [16]
  IC50: > 100000 nM

## CCOC(=O)CN1CCN(CCCOc2cc3c(Nc4cccc(Br)c4)ncnc3cc2OC)C(O)C1 (stereo unspecified)
EGFR (murine) [18]
  IC50: 33 nM
